These results are taken from ChEMBL document CHEMBL1201862, “PubChem BioAssay data set” (2004).

Active and inactive are the calls of the source.

The nature of experiment [1]: viability of uninfected HEp-2 cells – cell-based, HTS, cytotoxicity control for RSV inhibitor project, dose response (AID 2410). The conditions noted are these: human respiratory syncytial virus. It counts as functional.
The nature of experiment [2]: cells.
For a further experiment, the system named is Vero. Description: cells. It counts as functional, cell-based. The conditions noted are these: Chlorocebus sabaeus.
Another experiment has as its system SN12K1. The experiment can be described thus: cells. The conditions noted are these: Homo sapiens. It counts as functional.
In a further experiment the test system is P388. The experiment can be described thus: cells. It counts as functional. The conditions noted are these: Mus musculus.
The next experiment deals with P388/ADR. The experiment can be described thus: cells. It counts as functional. The conditions noted are these: Mus musculus.
Experiment [3] can be described thus: cells. This is another data set of the same source.
Another experiment has as its target Major prion protein (Homo sapiens, UniProt P04156). It counts as functional, cell-based.
Another experiment deals with H9c2. The experiment can be described thus: cells. It counts as functional, cell-based. The conditions noted are these: Rattus norvegicus, H9c2, Myocardium.
Experiment [4] deals with T1, DNA repair and recombination protein RAD54-like (Homo sapiens, UniProt Q92698).
T1 sequence (Q92698 whole entry): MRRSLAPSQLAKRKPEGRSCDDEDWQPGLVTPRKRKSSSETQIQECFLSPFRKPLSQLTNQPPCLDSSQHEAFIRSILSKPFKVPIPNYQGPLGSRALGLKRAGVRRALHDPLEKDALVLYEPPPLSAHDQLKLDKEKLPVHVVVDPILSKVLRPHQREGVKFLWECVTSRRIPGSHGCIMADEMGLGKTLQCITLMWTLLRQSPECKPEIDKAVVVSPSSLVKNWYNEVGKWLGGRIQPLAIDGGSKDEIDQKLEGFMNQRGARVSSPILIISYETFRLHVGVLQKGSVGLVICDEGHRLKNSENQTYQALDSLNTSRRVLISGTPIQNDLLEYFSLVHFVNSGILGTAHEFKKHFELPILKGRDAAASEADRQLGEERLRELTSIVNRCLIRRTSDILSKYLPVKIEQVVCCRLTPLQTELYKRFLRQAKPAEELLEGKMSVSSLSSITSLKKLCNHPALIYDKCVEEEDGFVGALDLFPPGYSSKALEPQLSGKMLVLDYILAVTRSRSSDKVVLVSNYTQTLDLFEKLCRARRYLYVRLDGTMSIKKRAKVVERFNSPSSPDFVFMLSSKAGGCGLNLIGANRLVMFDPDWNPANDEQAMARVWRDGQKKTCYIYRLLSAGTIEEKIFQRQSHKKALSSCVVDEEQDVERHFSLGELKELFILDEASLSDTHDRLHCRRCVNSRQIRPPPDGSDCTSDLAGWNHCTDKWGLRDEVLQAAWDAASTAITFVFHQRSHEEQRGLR
Description: RAD54 Holliday junction migration blockers – biochemical, fluorescence, cherry-picked samples, dose series, confirmation (AID 651657). It counts as functional.

Experiment [5] in a line: cells. It counts as functional, cell-based.
The target in experiment [6] is T2, Trace amine-associated receptor 1 (Homo sapiens, UniProt Q96RJ0).
T2 sequence (Q96RJ0 whole entry): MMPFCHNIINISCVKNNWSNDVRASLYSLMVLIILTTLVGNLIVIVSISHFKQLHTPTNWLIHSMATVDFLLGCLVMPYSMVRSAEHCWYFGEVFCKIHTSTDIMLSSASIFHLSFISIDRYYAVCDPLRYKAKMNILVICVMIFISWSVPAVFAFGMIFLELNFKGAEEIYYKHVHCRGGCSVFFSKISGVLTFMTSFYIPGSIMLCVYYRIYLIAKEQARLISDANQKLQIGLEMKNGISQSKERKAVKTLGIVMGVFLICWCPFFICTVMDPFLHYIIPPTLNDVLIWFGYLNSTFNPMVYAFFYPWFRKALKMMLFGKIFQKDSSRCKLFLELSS
Description: Counterscreen for agonists of the human trace amine associated receptor 1 (hTAAR1): Fluorescence-based cell-based high throughput dose response assay to identify hTAAR1 agonist that also desensitize TAAR1 receptor response. It counts as functional. A general note: Counterscreens check selectivity or assay interference.

Experiment [7] has as its target T2, Trace amine-associated receptor 1. The experiment can be described thus: Fluorescence-based cell-based high throughput dose response assay to identify agonists of the human trace amine associated receptor 1 (TAAR1). It counts as functional.
Experiment [8] in a line: cells. It counts as functional, cell-based. This is another data set of the same source.
Experiment [9] can be described thus: P. falciparum Dd2 growth inhibitors, dose response, SYBR Green, cherry-picked samples (AID 1159567). It counts as functional, cell-based.
A short description of experiment [10]: IGROV1 cell killing – plate reader, dry powder samples, PAX8 inhibitor project, dose response (AID 743043). It counts as functional, cell-based. The conditions noted are these: IGROV-1.
Experiment [11] is described as follows: OVCAR8 cell viability loss – plate reader, dry powder samples, PAX8 project, dose response (AID 743197). It counts as functional, cell-based. The conditions noted are these: OVCAR-8.
Experiment [12] in a line: OVCAR-3 cell viability loss – plate reader, dry powder samples, PAX8 inhibitor project, dose response (AID 743044). It counts as functional, cell-based.
A further experiment addresses Paired box protein Pax-8 (Homo sapiens, UniProt Q06710). The experiment can be described thus: PAX8 transcriptional activity inhibition in RMG-I – RMG-I cells, luciferase, cherry-pick, dose response (AID 687027).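 Note: luciferase reporter driven by Pax8 target thyroperoxidase promoter measured by SteadyGlo luminescence.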 It counts as functional, cell-based.
The target in experiment [13] is T3, Fructose-bisphosphate aldolase (Mycobacterium tuberculosis, UniProt P9WQA3).
T3 sequence (P9WQA3 whole entry): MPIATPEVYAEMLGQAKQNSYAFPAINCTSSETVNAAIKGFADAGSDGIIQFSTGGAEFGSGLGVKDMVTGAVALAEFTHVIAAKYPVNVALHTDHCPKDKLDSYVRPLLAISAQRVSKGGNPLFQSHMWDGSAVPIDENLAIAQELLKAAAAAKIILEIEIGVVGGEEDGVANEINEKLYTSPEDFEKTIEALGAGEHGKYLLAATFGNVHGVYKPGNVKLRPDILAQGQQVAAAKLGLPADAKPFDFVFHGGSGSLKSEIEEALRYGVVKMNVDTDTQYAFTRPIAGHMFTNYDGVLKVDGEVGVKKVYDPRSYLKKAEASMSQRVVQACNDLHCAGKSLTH
Description: Fluorescence-based biochemical high throughput dose response assay for inhibitors of the fructose-bisphosphate aldolase (FBA) of M. tuberculosis. It counts as functional.

Experiment [14] addresses FAD-linked sulfhydryl oxidase ALR (Homo sapiens, UniProt P55789). Description: ALR-catalysed DTT oxidation blockers – biochemical, H2O2 detection, luminescence, cherry-pick, dose response (AID 493248).

A word on the CC50: it is the concentration giving 50% cytotoxicity. As usually defined, the IC50 is the concentration that inhibits the measured activity by half. `COc1ccccc1OCC(=O)Nc1nc2c(s1)CCCC2`: the 50% cytotoxic concentration (CC50) in experiment [1] is 29.5 µM (active). In addition, the IC50 in the experiment “cells [2]” is 28.7 µM (active); in the experiment on Vero it was 24.3 µM (active).
The GI50 is the concentration giving 50% growth inhibition. As to `NC(=O)c1ncn2c(=O)n(CCCl)nnc12` [MITOZOLOMIDE], the GI50 in the experiment with SN12K1 was 75.2 µM (inactive); with P388, 13.8 µM (inactive); in the experiment on P388/ADR it was 12.3 µM (inactive).
Turning to `COc1ccc(Nc2nnc(-c3ccc(O)cc3)c3ccccc23)cc1C(N)=O`, the IC50 in the experiment “cells [3]” was > 138 µM (inactive); on Major prion protein it was 0.759 µM (active); with H9c2, 15 µM (active).
In general, AC50 refers to the concentration at which the activity in the assay is half-maximal. As for `Cn1c(NCCN2CCCC2)nc2cc(-c3ccsc3)sc2c1=O`, the AC50 in [4] is 55.8 µM (active).
A word on the EC50: it is the concentration needed to bring the measured effect to its halfway point. As to `O=C(O)C1C2C=CC(O2)C1C(=O)NCCc1cccc(Cl)c1` (stereo not drawn), the IC50 is > 29.9 µM (inactive) in the experiment “cells [5]” and 3.1 µM (active) in experiment [6]. Further, the results for the EC50 (in [7]; in “cells [8]”) were 307 nM (active) and > 29.9 µM (inactive), respectively.
Regarding `COc1cc([C@@H]2c3cc4c(cc3[C@@H](OC3OC5CO[C@@H](c6cccs6)OC5C(O)C3O)[C@H]3COC(=O)[C@H]23)OCO4)cc(OC)c1O` (stereo partly drawn), the GI50 with SN12K1 is 0.00838 µM (active); in the experiment with P388, 0.00815 µM (active); in the experiment with P388/ADR, 0.877 µM (active).
As for `C[C@@H]1CN([C@H](C)CO)C(=O)c2c(c3ccccc3n2C)-c2ccccc2CO[C@H]1CN(C)S(=O)(=O)c1ccc(C(F)(F)F)cc1`, the AC50 in [9] is 2.68 µM (active); in [10], 42.5 µM (active); in [11], 27 µM (active); in experiment [12], 23.5 µM (active); on Paired box protein Pax-8 it was 4.41 µM (active).
`COC1(O)c2cccc(Cl)c2C(=O)N1C1(C(N)=O)CCCCC1` (stereo not drawn): the GI50 with SN12K1, in the experiment with P388 and in the experiment on P388/ADR was > 100 µM (inactive) each time.
Regarding `COc1ccc(-c2cc(C(=O)NCC3CCCO3)c3cc(C(C)C)ccc3n2)cc1` (stereo not drawn), the IC50 in experiment [13] was 0.797 µM (active).
For the compound `COc1ccc2[nH]c3c(S)ncnc3c2c1`, the IC50 in the experiment “cells [3]” was > 138 µM (inactive).
Turning to `c1ccc(CCn2nnnc2C(c2cccs2)N2CCN(Cc3ccc4c(c3)OCO4)CC2)cc1` (stereo not drawn), the IC50 in the experiment “cells [5]” was > 29.9 µM (inactive); in [6] it was 2.19 µM (active). For the same compound, the concentration for a half-maximal effect (EC50) in [7] is 389 nM (active); in “cells [8]”, > 29.9 µM (inactive).
For `Cc1ccn2cc(-c3cnoc3C)nc2c1`, the IC50 in experiment [13] is > 1.11 µM (active).
Still for that read-out and setting: the same measure for `CCC1OC2(C)OC(=N)C1(C#N)C(C#N)(C#N)C2c1ccccc1` (stereo not drawn): > 1.11 µM (active).
Consider `COc1ccc2[nH]c3c(=S)[nH]cnc3c2c1`, for which the half-maximal inhibitory concentration (IC50) on Major prion protein is 5.91 µM (active). Further, the AC50 in experiment [14] was 35 nM (active).
As to `Cc1c2ccncc2c(C)c2c1[nH]c1ccc(OCCN(C)C)cc12`, the GI50 is 0.148 µM (active) with SN12K1, 0.0153 µM (active) with P388 and 0.0283 µM (active) with P388/ADR.
